The results in this text go back to patent publication US8211945B2, “Carba-sugar amine derivative and glycolipid metabolic disorder treating agent containing the same as active ingredient” (Seikagaku Corporation, priority 2001, dated 2012).

Data set [1] is described as follows: Safety observation during 1 week oral administration test in mice. Particulars: about 1.4 mg per day orally. The procedure: That is, tap water containing 1 mM (about 0.28 mg/ml) of the substance 18 of the present invention was continuously administered for 1 week as drinking water to recombinant mice (3 month-old) prepared by transferring a human mutant β-galactosidase gene R201C into β-galactosidase deficient knockout mice. One week thereafter, the mice were sacrificed to excise the cerebrum, the cerebellum, the heart, the lungs, the liver, the spleen, the kidney, a muscle (femoral muscle) and plasma. Also, tail tissues were used for the purpose of verifying changes in the β-galactosidase activity in the same individual before and after the administration. Each organ was crushed under ice-cooling using a homogenizer, and then the suspension of crushed cells was centrifuged at 8,000×g for 30 minutes. Thereafter, the supernatant fraction was recovered and used as an enzyme solution. The amount of protein in this enzyme solution was measured by the Bradford method, and the β-galactosidase activity was measured. With regard to the measurement of β-galactosidase activity, the enzyme activity during 30 minutes was measured at 37° C. using 4-methylumbelliferyl-β-D-galactopyranoside as the fluorogenic substrate. […] Three animals were used in each group to calculate the mean value.

The target in data set [2] is T1, human normal β-galactosidase (GP8) (Homo sapiens, UniProt P16278).
T1 sequence (P16278 29-677): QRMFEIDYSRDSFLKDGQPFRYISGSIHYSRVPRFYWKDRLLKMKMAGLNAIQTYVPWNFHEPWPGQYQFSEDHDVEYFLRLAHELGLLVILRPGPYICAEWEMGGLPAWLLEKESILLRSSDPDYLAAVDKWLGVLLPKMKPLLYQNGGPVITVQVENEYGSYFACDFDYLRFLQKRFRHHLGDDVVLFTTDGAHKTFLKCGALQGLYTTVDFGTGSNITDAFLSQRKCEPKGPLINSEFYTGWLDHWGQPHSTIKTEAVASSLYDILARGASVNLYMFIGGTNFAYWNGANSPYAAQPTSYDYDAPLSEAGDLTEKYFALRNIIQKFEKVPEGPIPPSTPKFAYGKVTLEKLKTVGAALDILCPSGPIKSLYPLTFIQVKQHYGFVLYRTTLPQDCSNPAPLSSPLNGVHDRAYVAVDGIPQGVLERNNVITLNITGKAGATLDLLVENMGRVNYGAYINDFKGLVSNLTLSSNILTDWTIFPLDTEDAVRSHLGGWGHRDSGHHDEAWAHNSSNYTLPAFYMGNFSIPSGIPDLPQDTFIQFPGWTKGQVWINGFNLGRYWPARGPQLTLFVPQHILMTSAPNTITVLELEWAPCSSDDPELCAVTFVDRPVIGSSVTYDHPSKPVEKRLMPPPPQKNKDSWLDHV
Nature of the data set: Galactosidase inhibitory activity, enzyme from culture supernatant, 4-methylumbelliferyl-β-D-galactopyranoside substrate. It counts as biochemical. More on the design: made in house; host or cells: SV40-immortalized β-galactosidase knockout mouse skin fibroblasts; Enzyme source was the supernatant after 24 h in NH4Cl medium, dialyzed and concentrated. Conditions: 30 minutes. As for the experimental part:
Knockout mouse skin fibroblast introduced with a human normal β-galactosidase (GP8) cDNA (Biochem. Biophys. Res. Commun., 157(1), 238-244, 1988) and immortalized with an SV40 viral gene were cultured at 37° C. in an atmosphere of 5% CO2, using Dulbecco's modified Eagle's medium (to be referred to as “DMEM” hereinafter: manufactured by Gibco) containing 10% fetal calf serum (to be referred to as “FCS” hereinafter), and when the cells became 80% confluent, the medium was exchanged with FCS-free DMEM containing 10 mM of NH4Cl. After culturing for 24 hours, the supernatant was recovered and dialyzed against 10 mM phosphate buffer (pH=6.5) for 4 hours. Thereafter, the mixture was concentrated using VIVAPORE-20 (manufactured by Vivapore) and used as the enzyme source. Using 4-methylumbelliferyl-β-D-galactopyranoside as the fluorescent substrate, the enzyme activity during 30 minutes was measured in the presence or absence of the substance to be tested (Table 1). Final concentration of the substance 18 of the present invention was adjusted to 0.05, 0.125, 0.25, 0.5, 1, 2.5 or 5 μM.

On to `CCCCCCCCN[C@@H]1C=C(CO)[C@H](O)C(O)[C@@H]1O` (stereo partly drawn) [Substance 18, N-octyl-5a-carba-α-L-arabino-hexo-5(5a)-enopyranosylamine], for which the health condition result in data set [1] is “health condition was markedly good”. In addition, the activity at 0.05 µM in data set [2] (0.050 umol/L substance) was determined as 77%. The same compound returned an activity at 0.125 µM in data set [2] (0.125 umol/L substance) of 59.5%. The activity at 0.25 µM in data set [2] (0.250 umol/L substance) came to 43.4%. In data set [2] (0.500 umol/L substance), the activity at 0.5 µM stood at 35.7%. The activity at 1 µM in data set [2] (1.000 umol/L substance) is 36%. The activity at 2.5 µM in data set [2] (2.500 umol/L substance) came out at 18.7%. In addition, in data set [2] (5.000 umol/L substance), the activity at 5 µM stood at 14.4%.
